Experiment [1] has as its system spring rye. Kind of experiment: Growth height of spring rye, leaf treatment, Example 11. Type of experiment: in vivo, spring rye ("Petkuser" variety). As for the experimental part:
(§1) The test plants--spring wheat ("Opal" variety), spring barley ("Union" variety) and spring rye ("Petkuser" variety)--were grown under greenhouse conditions in plastic dishes 11.5 cm in diameter, in a peat substrate provided with sufficient nutrients.
(§2) Leaf treatment was effected by spraying the plants at a growth height of 11 cm with aqueous formulations of the active ingredients, at three application rates.
(§3) The shortening effect caused by the compounds was shown by measurements of the height of the plants at the end of the experiment.
(§4) The prior art compound N,N,N-trimethyl-N-β-chloroethylammonium chloride (CCC, German Printed Application DAS No. 1,294,734) was used for comparison purposes.

Experiment [2] deals with spring rye. Put plainly: Growth height of spring rye, soil treatment, Example 11. Type of experiment: in vivo, spring rye ("Petkuser" variety). The method, then: as §1
(§5) The soil (preemergence) treatment was effected after sowing by pouring aqueous formulations of the active ingredients, at four application rates, onto the surface of the substrate.
as §3, §4

Experiment [3] relates to spring wheat. Kind of experiment: Growth height of spring wheat, soil (preemergence) treatment, Example 9. As to conditions: 30 days. Type of experiment: in vivo, spring wheat ("Opal" variety). The method, then: (§6) Spring wheat of the "Opal" variety and spring barley of the "Union" variety were grown in the winter half of the year under greenhouse conditions in plastic dishes 11.5 cm in diameter, in a peat substrate provided with sufficient nutrients.
(§7) The reductions in growth height caused by the treatment were determined by measuring the height of the plants at the end of the experiment after 30 days' growth, and comparing it with that of untreated plants.

Experiment [4] deals with spring barley. Put plainly: Growth height of spring barley, soil (preemergence) treatment, Example 9. As to conditions: 30 days. Type of experiment: in vivo, spring barley ("Union" variety). The method, then: as §6, §7
The subject of experiment [5] is spring barley. Put plainly: Growth height of spring barley, leaf treatment, Example 11. The experiment is classed as in vivo, spring barley ("Union" variety). The method, then: as §1, §2, §3, §4
For experiment [6], the system named is spring barley. Put plainly: Growth height of spring barley, soil treatment, Example 11. Type of experiment: in vivo, spring barley ("Union" variety). As for the experimental part: as §1, §5, §3, §4
Experiment [7] relates to spring wheat. Kind of experiment: Growth height of spring wheat, leaf treatment, Example 11. Type of experiment: in vivo, spring wheat ("Opal" variety). The method, then: as §1, §2, §3, §4
Experiment [8] has as its system spring wheat. Put plainly: Growth height of spring wheat, soil treatment, Example 10. Type of experiment: in vivo, spring wheat ("Opal" variety). As for the experimental part:
(§8) Spring wheat ("Opal" variety) and spring barley ("Union" variety) were grown under greenhouse conditions in plastic dishes 11.5 cm in diameter, in a peat substrate provided with sufficient nutrients. For the soil (preemergence) treatment, the active ingredients were poured, at two application rates, as aqueous formulations onto the surface of the substrate after sowing.
(§9) The plant height was measured at the end of the experiment. The figures obtained show the shortening effect of the active ingredients under investigation. The prior art compound β-chloroethylphosphonic acid (Ethephon, German Printed Application DAS No. 1,667,968) was used for comparison purposes.

Experiment [9] concerns spring barley. Put plainly: Growth height of spring barley, soil treatment, Example 10. Type of experiment: in vivo, spring barley ("Union" variety). The method, then: as §8, §9
Experiment [10] relates to spring barley. Kind of experiment: Growth height of spring barley, leaf treatment, Example 10. Type of experiment: in vivo, spring barley ("Union" variety). The method, then:
as §8
(§10) Leaf treatment was effected by spraying the plants at a growth height of 10 cm with aqueous formulations of the active ingredients at two application rates.
as §9

Experiment [11] has as its system spring wheat. Kind of experiment: Growth height of spring wheat, leaf treatment, Example 10. Type of experiment: in vivo, spring wheat ("Opal" variety). The method, then: as §8, §10, §9

Each structure is given as a SMILES string.

Take `C[N+](C)(C)CCCl.[Cl-]` [CCC, N,N,N-trimethyl-N-β-chloroethylammonium chloride, reference compound]: the Plant height worked out at 27.0 cm in [1] (0.75 kg/ha); 25.5 cm in [1] (1.50 kg/ha); 25.5 cm in [1] (3.00 kg/ha); 31.5 cm in experiment [2] (0.75 kg/ha); 30.5 cm in experiment [2] (1.50 kg/ha); 30.0 cm in experiment [2] (3.00 kg/ha). The Plant height in experiment [2] (6.00 kg/ha) worked out at 28.5 cm; in [3] (3 kg/ha), 21.5 cm; in experiment [3] (12 kg/ha), 19.5 cm; in [4] (3 kg/ha), 27.5 cm; in [4] (12 kg/ha) it was 24.5 cm; in experiment [5] (0.75 kg/ha), 27.5 cm. The Plant height in experiment [5] (1.50 kg/ha) was determined as 27.0 cm; in experiment [5] (3.00 kg/ha), 27.0 cm; in experiment [6] (0.75 kg/ha), 29.5 cm; in [6] (1.50 kg/ha), 29.5 cm; in experiment [6] (3.00 kg/ha), 27.5 cm; in experiment [6] (6.00 kg/ha), 26.0 cm. Further, the Plant height in [7] (0.75 kg/ha) is 27.5 cm; in [7] (1.50 kg/ha), 26.0 cm; in experiment [7] (3.00 kg/ha), 25.0 cm. Further, the “Plant height, % of untreated control” value stood at 94.7% in [1] (0.75 kg/ha); 89.5% in experiment [1] (1.50 kg/ha); 89.5% in [1] (3.00 kg/ha); 97.5% in experiment [2] (0.75 kg/ha); 94.4% in experiment [2] (1.50 kg/ha); 92.9% in experiment [2] (3.00 kg/ha). Besides, the “Plant height, % of untreated control” value in [2] (6.00 kg/ha) is reported as 88.2%; in [3] (3 kg/ha), 71.7%; in [3] (12 kg/ha), 65.0%; in [4] (3 kg/ha), 85.1%; in [4] (12 kg/ha), 75.9%; in experiment [5] (0.75 kg/ha), 98.4%. Moreover, the “Plant height, % of untreated control” value in [5] (1.50 kg/ha) was 97.1%; in [5] (3.00 kg/ha), 97.1%; in experiment [6] (0.75 kg/ha), 89.9%; in [6] (1.50 kg/ha), 89.9%; in [6] (3.00 kg/ha), 83.8%; in [6] (6.00 kg/ha), 79.3%. The “Plant height, % of untreated control” value in experiment [7] (0.75 kg/ha) worked out at 89.3%; in [7] (1.50 kg/ha), 84.4%; in [7] (3.00 kg/ha), 81.2%.

Take `O=P(O)(O)CCCl` [Ethephon, β-chloroethylphosphonic acid, reference compound]: the Plant height came out at 29.0 cm in experiment [8] (3 kg/ha); 25.0 cm in experiment [8] (12 kg/ha); 32.0 cm in experiment [9] (3 kg/ha); 27.5 cm in [9] (12 kg/ha); 27.0 cm in [10] (1.5 kg/ha); 24.5 cm in [10] (6.0 kg/ha). Further, the Plant height in [11] (1.5 kg/ha) amounted to 30.0 cm; in experiment [11] (6.0 kg/ha), 25.0 cm. The “Plant height, % of untreated control” value is given as 90.6% in experiment [8] (3 kg/ha); 78.1% in experiment [8] (12 kg/ha); 93.3% in [9] (3 kg/ha); 80.2% in experiment [9] (12 kg/ha); 96.4% in experiment [10] (1.5 kg/ha); 87.5% in experiment [10] (6.0 kg/ha). Further, the results for the “Plant height, % of untreated control” value in experiment [11] (1.5 kg/ha) and in experiment [11] (6.0 kg/ha) were 91.5% and 76.2%, respectively.

In the case of `C1C2C3N=NC3C1C1OC21` (stereo not drawn) [drawing 388], in [3] (3 kg/ha), the Plant height was found to be 21.5 cm and the “Plant height, % of untreated control” value came to 71.7%. In experiment [3] (12 kg/ha), the Plant height came to 12.5 cm and the “Plant height, % of untreated control” value worked out at 41.7%.

On to `c1ccc(C2=NOC3C4CC(C5N=NC45)C23)cc1` (stereo not drawn) [drawing 389], for which, in experiment [3] (3 kg/ha), the Plant height was 20.0 cm and the “Plant height, % of untreated control” value is 66.7%. In addition, in experiment [3] (12 kg/ha), the Plant height turned out to be 14.0 cm and the “Plant height, % of untreated control” value came out at 46.7%.

With `C1C2C3N=NC3C1C1OC21` (stereo not drawn) [drawing 390], the figures for the Plant height in experiment [4] (3 kg/ha) and in [4] (12 kg/ha) were 25.0 cm and 14.0 cm, respectively. Besides, the “Plant height, % of untreated control” value was 77.4% in experiment [4] (3 kg/ha) and 43.3% in experiment [4] (12 kg/ha).

For the compound `c1ccc(C2=NOC3C4CC(C5N=NC45)C23)cc1` (stereo not drawn) [drawing 391], in experiment [4] (3 kg/ha), the Plant height is given as 24.5 cm and the “Plant height, % of untreated control” value is recorded as 75.9%. In experiment [4] (12 kg/ha), the Plant height was 16.0 cm and the “Plant height, % of untreated control” value is recorded as 49.5%.

Consider `Clc1ccc(C2=NOC3C4CC(C5N=NC45)C23)cc1` (stereo not drawn) [drawing 414], for which, in [10] (1.5 kg/ha), the Plant height is given as 26.0 cm and the “Plant height, % of untreated control” value was 92.9%. Further, in experiment [10] (6.0 kg/ha), the Plant height was 24.5 cm and the “Plant height, % of untreated control” value was 87.5%.

The record behind these values is US4259235A, “Tricyclic nitrogenous compounds having string plant growth regulating properties” (BASF Aktiengesellschaft, priority 1977, dated 1981).
